Results on 15 molecules are retold here after patent US8431611B2, “Artemisinin derivatives” (Johns Hopkins University, priority 2006, dated 2013).

The test system of series [1] is Normal human foreskin fibroblasts. The class given is cell-based. As to the method: (§1) Normal human foreskin fibroblasts (American Type Culture Collection, Manassas, Va.) were used to grow tachyzoites and to test compounds for activity and cytotoxicity. Cells were maintained in Dulbecco's modified Eagle medium (Gibco, Grand Island, N.Y.) containing 10% fetal bovine serum (Atlas Biologicals, Fort Collins, Colo.), 25 mM HEPES (Gibco), 2 mM L-glutamine, 50 units of penicillin G per ml, and 50 μg of streptomycin sulfate per ml. A culture of the tachyzoites of T. gondii strain 2F, which constitutively expresses cytoplasmic β-galactosidase and is derived from strain RH (5), was a gift from Vern Carruthers, University of Michigan Medical School.
(§2) The compounds were tested for in vitro efficacy against T. gondii and cytotoxicity by previously published methods (9, 10). The median inhibitory dose (50% inhibitory dose [ID50]) and the median cytotoxic dose (50% toxic dose [TD50]) were calculated by extrapolation of the corresponding dose-response curve on a log-linear plot employing the portions of the curve that transected the 50% response point. For each compound, a therapeutic index (TI) was calculated by the formula TI=TD50/ID50.
(§3) Artemisinin was obtained from Holley Pharmaceuticals Co., Inc., Fullerton, Calif. Artemether was generously donated by Huiling Wang, University of Wuhan, China. Trimethoprim was purchased from Sigma Chemical Co. (St. Louis, Mo.). Chlorophenol red-β-D-galactopyranoside (Roche, Indianapolis, Ind.), 100 mM in 100 mM HEPES (pH 7.2), was stored frozen at −80° C. CellTiter 96 AQueous One Solution Reagent for determining cytotoxicity was purchased from Promega Corp., Madison, Wis.

Series [2] has as its system T. gondii strain 2F. The experiment in a line: In vitro inhibition of T. gondii (growth inhibition assay). Conditions: for IC50: read-out: concentration inhibiting toxoplasma replication; for antitoxoplasma inhibitory activity (growth inhibition assay): in words. Format: cell-based, Toxoplasma gondii. As to the method:
as §1, §2, §3

Series [3] has as its system T. gondii tachyzoites. The experiment in a line: Quantification of invasion using red/green assay (attachment/penetration). The class given is cell-based, Toxoplasma gondii. The note with it: 10 μg/ml (range 25-34 μM); FIG. 1. As to the method: FIG. 1 illustrates the quantification of invasion using red/green assay. Green bars represent internal/penetrated parasites while red bars depict external/attached parasites. Compounds were tested at 10 μg/ml (range 25-34 μM). BAPTA-AM (20 μM) and cytochalasin D (Cyt D, 2 μM) were included as positive controls for inhibition of attachment or penetration, respectively. Data are mean values±SEM of three independent experiments, counting ten random fields for each sample.
FIG. 1 illustrates the quantification of invasion using red/green assay (8). Black bars represent internal/penetrated parasites while gray bars depict external/attached parasites. Compounds were tested at 10 μg/ml (range 25-34 μM). BAPTA-AM (20 μM) and cytochalasin D (Cyt D, 2 μM) were included as positive controls for inhibition of attachment or penetration, respectively. Data are mean values±SEM of three independent experiments, counting ten random fields for each sample.

Series [4] deals with T. gondii tachyzoites. The experiment in a line: Replication inhibition assay. Format: cell-based, Toxoplasma gondii. Conditions: 10 μg/ml added 2 hours after infection of HFF cells, 26 hours; FIG. 2. As to the method: FIG. 2 illustrates the replication inhibition assay. T. gondii tachyzoites are allowed to infect HFF cells for 2 hours. Following this, compounds are added to the cells for a final concentration of 10 μg/ml and the infection is allowed to progress for 26 hours. Data are compiled from ten randomly selected fields wherein number of vacuoles and number of parasites within the vacuoles are enumerated. Control represents no drug added.
FIG. 2 illustrates the replication inhibition assay (14). T. gondii tachyzoites are allowed to infect HFF cells for 2 hours. Following this, compounds are added to the cells for a final concentration of 10 μg/ml and the infection is allowed to progress for 26 hours. Data are compiled from ten randomly selected fields wherein number of vacuoles and number of parasites within the vacuoles are enumerated. Control represents no drug added.

The test system of series [5] is chloroquine-sensitive Plasmodium falciparum (NF 54). The experiment in a line: Inhibition of replication of malaria parasites. Conditions: unpublished data of J. D'Angelo and G. Posner. Format: cell-based.
[6] abbreviates: Table 1, T. gondii in human foreskin fibroblasts.
Where [7] appears, read: Toxoplasma gondii, Fibroblast, Table 1, T. gondii in human foreskin fibroblasts, read-out: ID50 (the source's name).
The mark [8] stands for this setting: Toxoplasma gondii, Table 2, average of three independent experiments, read-out: ID50 (the source's name).
Where [9] appears, read: Toxoplasma gondii, summary of Table 1.
The mark [10] stands for this setting: Table 1, T. gondii in human foreskin fibroblasts, read-out: ID50 (the source's name).
Where [11] appears, read: Table 2, average of three independent experiments, read-out: ID50 (the source's name).

SMILES strings stand for the structures. pIC50: −log10 of the molar value. In brackets after ≈: the same amount, converted by molar mass. Entries after “also recorded” stand apart in the source; their conditions may differ. Where two headings read alike, the source gives them in different places.

Regarding `CO[C@H]1O[C@@H]2O[C@@]3(C)CC[C@H]4[C@H](C)CC[C@@H]([C@H]1C)[C@@]24OO3` [Artemether, reference compound], the “concentration of 50% cytotoxicity (TD50)” value in series [1] (human) is over 160 µg/mL. The same molecule yielded an ID50 in series [2] (setting [6]) of 0.2 µg/mL (≈ 0.67 µM). Besides, the pIC50 is 6.15 in series [2] (setting [7]) and 6.43 in series [2] (setting [8]). Besides, the IC50 in series [2] (setting [9]) is under 1 µg/mL.

As for `C[C@@H]1CC[C@H]2[C@@H](C)C(=O)O[C@@H]3O[C@@]4(C)CC[C@@H]1[C@]32OO4` [Artemisinin], the “inhibition of attachment of T. gondii tachyzoites to HFF cells” value (“inhibition of attachment … to HFF cells” below) in series [3] is “exception”. Also, the “inhibition of T. gondii replication” value in series [4] is “ineffective”. The same molecule came in with an ID50 in series [2] (setting [6]) of 2.3 µg/mL (≈ 8.15 µM). In addition, in series [2] (setting [7]), the pIC50 was 5.10. Besides, in series [2] (setting [9]), the IC50 is 2 to 3 µg/mL.

`C[C@H]1[C@@H](CCCO)O[C@@H]2O[C@]3(C)CC[C@H]4[C@H](C)CC[C@@H]1[C@@]24OO3` [Compound 2a, ART-PrOH] returned an ID50 in series [2] (setting [6]) of 2.7 µg/mL (≈ 8.27 µM). In addition, the pIC50 in series [2] (setting [7]) is 5.08. Also, in series [2] (setting [9]), the IC50 was in the range of 2 to 3 µg/mL.

In series [2] (setting [6]), `CC1CCC2C(C)C(CCCOC(=O)c3ccccc3)OC3OC4(C)CCC1C32OO4` (stereo not drawn) [Compound 2b] returned an ID50 of 0.6 µg/mL (≈ 1.39 µM). Moreover, the pIC50 in series [2] (setting [10]) was 5.85.

Take `CC1CCC2C(C)C(CCCOC(=O)c3ccccc3Br)OC3OC4(C)CCC1C32OO4` (stereo not drawn) [Compound 2c]: in series [2] (setting [6]), the ID50 amounted to 0.6 µg/mL (≈ 1.18 µM). Also, the pIC50 in series [2] (setting [10]) was 5.92.

Take `CC(C)=CCCC(C)CCOCCCC1OC2OC3(C)CCC4C(C)CCC(C1C)C24OO3` (stereo not drawn) [Compound 2d]: in series [1], the “concentration of 50% cytotoxicity (TD50)” value is over 160 µg/mL. For the same molecule, the ID50 in series [2] (setting [6]) came out at 0.5 µg/mL (≈ 1.08 µM). Moreover, the pIC50 in series [2] (setting [10]) is 5.96.

For the molecule `CC1=C(c2nccs2)OC2OC3(C)CCC4C(C)CCC1C24OO3` (stereo not drawn) [Compound 3a, DART-Thiaz], the “inhibition of T. gondii replication” value in series [4] is on record as “moderate inhibition”. Further, the pIC50 in series [2] (setting [11]) was 5.77.

Regarding `CC1=C(c2nc3ccccc3s2)OC2OC3(C)CCC4C(C)CCC1C24OO3` (stereo not drawn) [Compound 3b, DART-Benzothiazole], in series [4], the “inhibition of T. gondii replication” value was “quite effective”. Moreover, the pIC50 in series [2] (setting [11]) is 6.00.

Take `CC1=C(C=O)OC(C)C1C` (stereo not drawn) [Compound 3c, DART-ald]: the “inhibition of T. gondii replication” value in series [4] is listed as “quite effective”. Besides, in series [2] (setting [8]), the pIC50 is 6.00.

Consider `CC1=C(C(=O)O)OC(C)C1C` (stereo not drawn) [Compound 3d, DART-C(O)—OH], for which the “inhibition of T. gondii replication” value in series [4] is reported as “ineffective”. Besides, in series [2] (setting [8]), the pIC50 is 4.39.

On to `COC(=O)C1=C(C)C(C)C(C)O1` (stereo not drawn) [Compound 3e, DART-C(O)—OMe], for which the “concentration of 50% cytotoxicity (TD50)” value in series [1] (human) is over 160 µg/mL. Also, the “inhibition of T. gondii replication” value in series [4] was “moderate inhibition”. The pIC50 in series [2] (setting [8]) was 5.54.

With `CCNC(=O)C1=C(C)C(C)C(C)O1` (stereo not drawn) [Compound 3f, DART-C(O)—NHEt], in series [3], the “inhibition of attachment … to HFF cells” value is listed as “exception”. Also, the “inhibition of T. gondii replication” value in series [4] is given as “moderate inhibition”. For the same molecule, in series [2] (setting [8]), the pIC50 was 5.36.

In the case of `C[C@H]1[C@@H](CCCO)O[C@@H]2O[C@]3(C)CC[C@H]4[C@H](C)CC[C@@H]1[C@@]24O3` [Deoxy-2a, Deoxy-ART-PrOH], in series [5], the antimalaria activity entry is “virtually no antimalaria activity”. In series [2] (setting [6]), this molecule displayed an ID50 of 173 µg/mL (≈ 557 µM). The pIC50 in series [2] (setting [7]) is 3.25. The “antitoxoplasma inhibitory activity (growth inhibition assay)” value in series [2] is listed as “virtually no inhibitory activity; also recorded: devoid of antitoxoplasma activity”.

As for `CC1=C(c2nccs2)OC2O[C@]3(C)CC[C@H]4[C@H](C)CC[C@@H]1[C@@]24O3` (stereo partly drawn) [Deoxy-3a, deoxy-DART-thiaz], in series [3], the “inhibition of attachment … to HFF cells” value is “effective in inhibition of attachment”. The “inhibition of T. gondii replication” value in series [4] is “ineffective”. In addition, the antimalaria activity entry in series [5] is given as “virtually no antimalaria activity”. In addition, the pIC50 in series [2] (setting [8]) is 3.02. In addition, the “antitoxoplasma inhibitory activity (growth inhibition assay)” value in series [2] was “little or no efficacy; also recorded: devoid of antitoxoplasma activity”.

Take `COc1cc(Cc2cnc(N)nc2N)cc(OC)c1OC` [Trimethoprim, reference compound]: the “concentration of 50% cytotoxicity (TD50)” value in series [1] (human) turned out to be 60 µg/mL. In addition, the ID50 in series [2] (setting [6]) stood at 5.2 µg/mL (≈ 17.9 µM). The pIC50 in series [2] (Toxoplasma gondii, Fibroblast, read-out: ID50) is 4.75; in series [2] (Toxoplasma gondii, read-out: ID50) it was 4.72. For the same molecule, the IC50 in series [2] (Toxoplasma gondii) amounted to 5.2 µg/mL.
